Assay in all cases: inhibition of tumour cell growth, NCI panel, 48 h
Test [1] has as its system SK-OV-3 ovarian.
The subject of test [2] is KM12 colon.
Test [3] deals with SNB-75 CNS.
For test [4], the system named is MDA-MB-435.
Test [5] relates to M14 melanoma.
Test [6] deals with U251 CNS.
Test [7] relates to NCI/ADR-RES ovarian.
The test system of test [8] is PC-3 prostate.

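Five concentrations, 48 hours, 96-well plates. Here, GI50 denotes the concentration required for 50% inhibition of growth. TGI denotes the concentration required for complete inhibition of growth.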 Some results are limits rather than exact numbers.

Consider `CCOC(=O)Nc1ccc2nc(-c3cscn3)[nH]c2c1`, for which the GI50 in test [1] is 3.61 µM; in test [2] it was 2.05 µM; in test [3], 2.84 µM; in test [4], 0.398 µM; in test [5] it was 2.86 µM; in test [6], 4.05 µM. The GI50 was 2.71 µM in test [7] and 10.4 µM in test [8]. The TGI in test [1] is 29.8 µM; in test [2] it was above 100 µM; in test [3] it was 29.4 µM; in test [4], 1.93 µM; in test [5], above 100 µM; in test [6], above 100 µM. Also, the TGI is above 74.9 µM in test [7] and above 100 µM in test [8].

`C/C(=N/NC(=S)Nc1ccccc1)c1nc2ccc(Cl)cc2[nH]1`: the GI50 in test [1] is 0.246 µM; in test [2] it was 0.14 µM; in test [3], 0.328 µM; in test [5] it was 0.0763 µM; in test [6], 0.0996 µM; in test [8], 0.236 µM. In addition, the TGI worked out at 1.39 µM in test [1]; 0.826 µM in test [2]; 1.04 µM in test [3]; 0.26 µM in test [5]; 1.02 µM in test [6]; 2.23 µM in test [8].

Take `Oc1ccc(Cl)cc1C=Nc1cnc2ccccc2c1`: the TGI in test [1] was above 100 µM; in test [2], above 100 µM; in test [3] it was above 87.6 µM; in test [4], above 100 µM; in test [5], above 100 µM; in test [6], above 70.6 µM. For the same compound, the TGI in test [7] was above 100 µM; in test [8], above 88.4 µM.

For the compound `CN1CCN(C2=NC(=O)/C(=C\c3ccc(N(C)C)cc3)S2)CC1`, the GI50 in test [1] is above 100 µM; in test [2], above 100 µM; in test [3], 48.2 µM; in test [4], above 100 µM; in test [5] it was 3.79 µM; in test [6] it was above 100 µM. Moreover, the GI50 in test [7] and in test [8] was above 100 µM throughout. Further, the TGI in test [1], in test [2], in test [3], in test [4], in test [5] and in test [6] was above 100 µM each time. Also, the TGI in test [7] and in test [8] was above 100 µM in each case.

Turning to `COc1cc2c(/C=C3\C(=O)Nc4ccccc43)c[nH]c2cc1C`, the GI50 in test [1] is 0.0856 µM; in test [2] it was 0.239 µM; in test [4] it was 0.0566 µM; in test [5] it was below 0.0178 µM; in test [6], 0.94 µM; in test [7] it was below 0.01 µM. For the same compound, the GI50 in test [8] is 0.213 µM. For the same compound, the TGI in test [1] is 3.21 µM; in test [2] it was 0.824 µM; in test [4] it was 0.403 µM; in test [5], 0.843 µM; in test [6], 4.82 µM; in test [7], 0.0736 µM. The compound also came in with a TGI in test [8] of 13.2 µM.

With `COc1ccc(-c2ccc(C3CC(c4ccccc4)=NN3)o2)c([N+](=O)[O-])c1` (centres undefined), the GI50 in test [1] was 42.5 µM; in test [2], 27.3 µM; in test [4], 32.4 µM; in test [5], 51.9 µM; in test [6], 57.3 µM; in test [7], 33.9 µM. The GI50 in test [8] is 37.3 µM. For the same compound, the TGI in test [1], in test [2], in test [4], in test [5], in test [6] and in test [7] was above 100 µM in each case. The TGI in test [8] was above 100 µM.

Take `N=C1CCCC1C(=S)SCCC(N)=O` (centres undefined): the TGI in test [1], in test [2], in test [3], in test [4], in test [5] and in test [6] was above 100 µM in each case. The TGI in test [7] and in test [8] was above 100 µM throughout.

Consider `CC1(C)CC(C)(C)c2cc(NC(=S)Nc3ccc([N+](=O)[O-])cc3)ccc2S1`, for which the GI50 in test [1] is 16.5 µM; in test [2] it was 10.9 µM; in test [3] it was 16.7 µM; in test [4] it was 11.8 µM; in test [5] it was 17.9 µM; in test [6] it was 11.1 µM. Further, the GI50 in test [7] was 13.9 µM; in test [8], 9.69 µM. Further, the TGI was 54.8 µM in test [1]; 34.8 µM in test [2]; 48.7 µM in test [3]; 30.5 µM in test [4]; above 53.9 µM in test [5]; 29.4 µM in test [6]. Further, the TGI in test [7] stood at 48.2 µM; in test [8], 22.4 µM.

On to `O=C1NC(=NCCc2ccc(Cl)cc2)S/C1=C\c1ccc2ncccc2c1`, for which the GI50 was 17.5 µM in test [1]; above 23 µM in test [2]; 6.77 µM in test [3]; 10 µM in test [4]; 25 µM in test [5]; 20.8 µM in test [6]. The GI50 in test [7] was 19.5 µM; in test [8] it was above 25 µM. In addition, the TGI in test [1] was above 25 µM; in test [2], above 25 µM; in test [3], above 21.6 µM; in test [4] it was above 25 µM; in test [5] it was above 25 µM; in test [6], above 25 µM. The TGI in test [7] and in test [8] was above 25 µM in each case.

As to `COc1cc2c(cc1OCCNC(=O)/C=C1\C[C@H]3C=Nc4cc(OCc5ccccc5)c(OC)cc4C(=O)N3C1)N=C[C@@H]1CCCN1C2=O`, the GI50 in test [1] is 25.1 µM; in test [2], 9.31 µM; in test [4], 2.97 µM; in test [5] it was 10.4 µM; in test [6], 2.82 µM; in test [7] it was above 100 µM. Besides, in test [8], the GI50 is 3.53 µM. Also, the TGI in test [1] is 73.1 µM; in test [2] it was 28.8 µM; in test [4], 9.79 µM; in test [5] it was 28.8 µM; in test [6], 8.35 µM; in test [7], above 100 µM. The same compound displayed a TGI in test [8] of 33.7 µM.

Source of the values: PubChem BioAssay (NCI).
